Laboratory results published in patent publication US20150011423A1, “MEANS AND METHODS FOR ASSESSING KIDNEY TOXICITY” (BASF SE, priority 2011, published 2015).

System: rats
Experiment: 28-day repeated dose study in rats with mass spectrometry-based plasma metabolite profiling (GC-MS, LC-MS, SPE-LC-MS); treatment ratios versus control
Details: plasma; for Choline plasmalogen No 02 (putative), treatment ratio versus control / Lysophosphatidylcholine (C17:0), treatment ratio versus control / TAG (C42:9) (DAG-Fragment) (putative), treatment ratio versus control / Lyso PE (C22:0) (putative), treatment ratio versus control: male rats, Table 11b alpha 2 u globulin-nephropathy
[1] = day 7, high doses except for 1,1,2,2-tetrachloroethane
[2] = day 14, high doses except for 1,1,2,2-tetrachloroethane
[3] = day 28, high doses except for 1,1,2,2-tetrachloroethane

ClC(Cl)C(Cl)Cl [1,1,2,2-Tetrachloroethane]
3-Hydroxyindole (ratio treated vs control) (m7: male rats, day 7): 1.39
4-Hydroxysphinganine (t18:0, Phytosphingosine), total (ratio treated vs control) (m7: male rats, day 7): 2.03
Glucuronic acid (ratio treated vs control) (m7: male rats, day 7): 3.97
Glutamate (ratio treated vs control) (m7: male rats, day 7): 2.31
Nervonic acid (C24:cis[15]1) (ratio treated vs control) (m7: male rats, day 7): 1.09
Oleic acid (C18:cis[9]1) (ratio treated vs control) (m7: male rats, day 7): 1.11
Ornithine (ratio treated vs control) (m7: male rats, day 7): 2.10
Pantothenic acid (ratio treated vs control) (m7: male rats, day 7): 4.46
Phosphatidylcholine (C18:0, C18:1) (ratio treated vs control) (m7: male rats, day 7): 1.48
Pseudouridine (ratio treated vs control) (m7: male rats, day 7): 1.17
Sphingomyelin (d18:1, C16:0) (ratio treated vs control) (m7: male rats, day 7): 1.65
Sphingomyelin (d18:2, C18:0) (ratio treated vs control) (m7: male rats, day 7): 1.22
Xylitol (ratio treated vs control) (m7: male rats, day 7): 12.21
dihomo-gamma-Linolenic acid (C20:cis[8,11,14]3) (ratio treated vs control) (m7: male rats, day 7): 2.56
3-Hydroxyindole (ratio treated vs control) (m14: male rats, day 14): 2.05
4-Hydroxysphinganine (t18:0, Phytosphingosine), total (ratio treated vs control) (m14: male rats, day 14): 2.04
Glucuronic acid (ratio treated vs control) (m14: male rats, day 14): 1.20
Glutamate (ratio treated vs control) (m14: male rats, day 14): 1.80
Nervonic acid (C24:cis[15]1) (ratio treated vs control) (m14: male rats, day 14): 0.96
Oleic acid (C18:cis[9]1) (ratio treated vs control) (m14: male rats, day 14): 1.18
Ornithine (ratio treated vs control) (m14: male rats, day 14): 2.38
Pantothenic acid (ratio treated vs control) (m14: male rats, day 14): 4.32
Phosphatidylcholine (C18:0, C18:1) (ratio treated vs control) (m14: male rats, day 14): 1.21
Pseudouridine (ratio treated vs control) (m14: male rats, day 14): 1.51
Sphingomyelin (d18:1, C16:0) (ratio treated vs control) (m14: male rats, day 14): 1.34
Sphingomyelin (d18:2, C18:0) (ratio treated vs control) (m14: male rats, day 14): 0.93
Xylitol (ratio treated vs control) (m14: male rats, day 14): 10.32
dihomo-gamma-Linolenic acid (C20:cis[8,11,14]3) (ratio treated vs control) (m14: male rats, day 14): 3.40
3-Hydroxyindole (ratio treated vs control) (m28: male rats, day 28): 2.05
4-Hydroxysphinganine (t18:0, Phytosphingosine), total (ratio treated vs control) (m28: male rats, day 28): 2.04
Glucuronic acid (ratio treated vs control) (m28: male rats, day 28): 1.20
Glutamate (ratio treated vs control) (m28: male rats, day 28): 1.80
Nervonic acid (C24:cis[15]1) (ratio treated vs control) (m28: male rats, day 28): 0.96
Oleic acid (C18:cis[9]1) (ratio treated vs control) (m28: male rats, day 28): 1.18
Ornithine (ratio treated vs control) (m28: male rats, day 28): 2.38
Pantothenic acid (ratio treated vs control) (m28: male rats, day 28): 4.32
Phosphatidylcholine (C18:0, C18:1) (ratio treated vs control) (m28: male rats, day 28): 1.21
Pseudouridine (ratio treated vs control) (m28: male rats, day 28): 1.51
Sphingomyelin (d18:1, C16:0) (ratio treated vs control) (m28: male rats, day 28): 1.34
Sphingomyelin (d18:2, C18:0) (ratio treated vs control) (m28: male rats, day 28): 0.93
Xylitol (ratio treated vs control) (m28: male rats, day 28): 10.32
dihomo-gamma-Linolenic acid (C20:cis[8,11,14]3) (ratio treated vs control) (m28: male rats, day 28): 3.40
Choline plasmalogen No 02 (putative), treatment ratio versus control [1]: 1.04
Lysophosphatidylcholine (C17:0), treatment ratio versus control [1]: 0.63
TAG (C42:9) (DAG-Fragment) (putative), treatment ratio versus control [1]: 0.76
Choline plasmalogen No 02 (putative), treatment ratio versus control [2]: 1.13
Lysophosphatidylcholine (C17:0), treatment ratio versus control [2]: 0.89
TAG (C42:9) (DAG-Fragment) (putative), treatment ratio versus control [2]: 0.72
Choline plasmalogen No 02 (putative), treatment ratio versus control [3]: 1.13
Lysophosphatidylcholine (C17:0), treatment ratio versus control [3]: 0.89
TAG (C42:9) (DAG-Fragment) (putative), treatment ratio versus control [3]: 0.72

CC(C)CC(C)(C)C [2,2,4-Trimethylpentane, 2,2,4-trimethylpentane]
3-Hydroxyindole (ratio treated vs control) (m7: male rats, day 7): 1.92
4-Hydroxysphinganine (t18:0, Phytosphingosine), total (ratio treated vs control) (m7: male rats, day 7): 1.46
Glucuronic acid (ratio treated vs control) (m7: male rats, day 7): 3.88
Glutamate (ratio treated vs control) (m7: male rats, day 7): 1.57
Nervonic acid (C24:cis[15]1) (ratio treated vs control) (m7: male rats, day 7): 1.60
Oleic acid (C18:cis[9]1) (ratio treated vs control) (m7: male rats, day 7): 2.10
Ornithine (ratio treated vs control) (m7: male rats, day 7): 1.12
Pantothenic acid (ratio treated vs control) (m7: male rats, day 7): 2.59
Phosphatidylcholine (C18:0, C18:1) (ratio treated vs control) (m7: male rats, day 7): 1.35
Pseudouridine (ratio treated vs control) (m7: male rats, day 7): 1.23
Sphingomyelin (d18:1, C16:0) (ratio treated vs control) (m7: male rats, day 7): 1.62
Sphingomyelin (d18:2, C18:0) (ratio treated vs control) (m7: male rats, day 7): 1.35
Xylitol (ratio treated vs control) (m7: male rats, day 7): 1.65
dihomo-gamma-Linolenic acid (C20:cis[8,11,14]3) (ratio treated vs control) (m7: male rats, day 7): 2.42
3-Hydroxyindole (ratio treated vs control) (m14: male rats, day 14): 2.88
4-Hydroxysphinganine (t18:0, Phytosphingosine), total (ratio treated vs control) (m14: male rats, day 14): 1.34
Glucuronic acid (ratio treated vs control) (m14: male rats, day 14): 3.87
Glutamate (ratio treated vs control) (m14: male rats, day 14): 1.44
Nervonic acid (C24:cis[15]1) (ratio treated vs control) (m14: male rats, day 14): 1.38
Oleic acid (C18:cis[9]1) (ratio treated vs control) (m14: male rats, day 14): 2.37
Ornithine (ratio treated vs control) (m14: male rats, day 14): 1.23
Pantothenic acid (ratio treated vs control) (m14: male rats, day 14): 3.07
Phosphatidylcholine (C18:0, C18:1) (ratio treated vs control) (m14: male rats, day 14): 1.34
Pseudouridine (ratio treated vs control) (m14: male rats, day 14): 1.31
Sphingomyelin (d18:1, C16:0) (ratio treated vs control) (m14: male rats, day 14): 1.59
Sphingomyelin (d18:2, C18:0) (ratio treated vs control) (m14: male rats, day 14): 1.28
Xylitol (ratio treated vs control) (m14: male rats, day 14): 1.33
dihomo-gamma-Linolenic acid (C20:cis[8,11,14]3) (ratio treated vs control) (m14: male rats, day 14): 2.06
3-Hydroxyindole (ratio treated vs control) (m28: male rats, day 28): 2.30
4-Hydroxysphinganine (t18:0, Phytosphingosine), total (ratio treated vs control) (m28: male rats, day 28): 1.26
Glucuronic acid (ratio treated vs control) (m28: male rats, day 28): 3.46
Glutamate (ratio treated vs control) (m28: male rats, day 28): 1.74
Nervonic acid (C24:cis[15]1) (ratio treated vs control) (m28: male rats, day 28): 1.22
Oleic acid (C18:cis[9]1) (ratio treated vs control) (m28: male rats, day 28): 2.97
Ornithine (ratio treated vs control) (m28: male rats, day 28): 1.23
Pantothenic acid (ratio treated vs control) (m28: male rats, day 28): 3.03
Phosphatidylcholine (C18:0, C18:1) (ratio treated vs control) (m28: male rats, day 28): 1.35
Pseudouridine (ratio treated vs control) (m28: male rats, day 28): 1.28
Sphingomyelin (d18:1, C16:0) (ratio treated vs control) (m28: male rats, day 28): 1.54
Sphingomyelin (d18:2, C18:0) (ratio treated vs control) (m28: male rats, day 28): 1.23
Xylitol (ratio treated vs control) (m28: male rats, day 28): 1.68
dihomo-gamma-Linolenic acid (C20:cis[8,11,14]3) (ratio treated vs control) (m28: male rats, day 28): 2.77
Choline plasmalogen No 02 (putative), treatment ratio versus control [1]: 0.72
Lyso PE (C22:0) (putative), treatment ratio versus control [1]: 0.54
Lysophosphatidylcholine (C17:0), treatment ratio versus control [1]: 0.72
TAG (C42:9) (DAG-Fragment) (putative), treatment ratio versus control [1]: 0.67
Choline plasmalogen No 02 (putative), treatment ratio versus control [2]: 0.73
Lyso PE (C22:0) (putative), treatment ratio versus control [2]: 0.49
Lysophosphatidylcholine (C17:0), treatment ratio versus control [2]: 0.73
TAG (C42:9) (DAG-Fragment) (putative), treatment ratio versus control [2]: 0.64
Choline plasmalogen No 02 (putative), treatment ratio versus control [3]: 0.81
Lyso PE (C22:0) (putative), treatment ratio versus control [3]: 0.45
Lysophosphatidylcholine (C17:0), treatment ratio versus control [3]: 0.80
TAG (C42:9) (DAG-Fragment) (putative), treatment ratio versus control [3]: 0.76
